In patent publication US20120142705A1, “ISATIN AND OXINDOLE COMPOUNDS” (priority 2010, published 2012):

target: T1, Recombinant human liver GK1 (GST-GK) (Homo sapiens, UniProt P35557); experiment: In vitro glucokinase activity, G6PDH-coupled spectrophotometric assay; format: biochemical; conditions: 5 mM D-glucose, 30° C., pH 7.1
T1 construct: made in house; host or cells: E. coli
T1 sequence (P35557 1-466 isoform P35557-2): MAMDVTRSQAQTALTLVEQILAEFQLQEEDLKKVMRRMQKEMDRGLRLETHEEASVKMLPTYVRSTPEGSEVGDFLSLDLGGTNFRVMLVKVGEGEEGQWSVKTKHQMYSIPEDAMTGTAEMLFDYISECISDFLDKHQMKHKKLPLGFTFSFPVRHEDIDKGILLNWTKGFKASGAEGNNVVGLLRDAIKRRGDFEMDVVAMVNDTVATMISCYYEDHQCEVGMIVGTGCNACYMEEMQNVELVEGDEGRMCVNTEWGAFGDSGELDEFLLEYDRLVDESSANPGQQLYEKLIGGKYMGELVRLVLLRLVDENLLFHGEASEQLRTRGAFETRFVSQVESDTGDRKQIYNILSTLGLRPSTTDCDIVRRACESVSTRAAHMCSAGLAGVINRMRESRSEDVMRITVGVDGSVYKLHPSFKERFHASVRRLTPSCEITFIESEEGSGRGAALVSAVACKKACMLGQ
Protocol: Glucokinase In Vitro Assay Protocol: Glucokinase (GK) was assayed by coupling the production of glucose-6-phosphate to the generation of NADH with glucose-6-phosphate dehydrogenase (G6PDH, 0.75-1 kunits/mg; Boehringer Mannheim, Indianapolis, Ind.) from Leuconostoc mesenteroides as the coupling enzyme (Scheme 2).
Recombinant human liver GK1 was expressed in E. coli as a glutathione S-transferase fusion protein (GST-GK) [Liang et al, 1995] and was purified by chromatography over a glutathione-Sepharose 4B affinity column using the procedure provided by the manufacturer (Amersham Pharmacia Biotech, Piscataway, N.J.).
The assay was conducted at 30° C. in a flat bottom 96-well tissue culture plate from Costar (Cambridge, Mass.) with a final incubation volume of 120 μL. The incubation reaction contained the following: 25 mM Hepes buffer (pH 7.1), 25 mM KCl, 5 mM D-glucose, 1 mM ATP, 1.8 mM NAD, 2 mM MgCl2, 1 μM sorbitol-6-phosphate, 1 mM dithiothreitol, test drug or 10% dimethylsulfoxide, ˜7 units/ml G6PDH, and GK (see below). All organic reagents were >98% pure and were from Boehringer Mannheim with the exceptions of D-glucose and Hepes which were from Sigma Chemical Co, St Louis, Mo. Test compounds were dissolved in dimethylsulfoxide and were added to the incubation reaction minus GST-GK in a volume of 12 μL to yield a final dimethylsulfoxide concentration of 10%. This mix was pre-incubated in the temperature controlled chamber of a SPECTRAmax 250 microplate spectrophotometer (Molecular Devices Corporation, Sunnyvale, Calif.) for 10 minutes to allow temperature equilibrium and then the reaction was started by the addition of 20 μL GST-GK.
After addition of enzyme, the increase in optical density (OD) at 340 nm was monitored spectrophotometrically to determine the rate of change (OD340 per min). The GK activity (OD340/min) in control wells (10% dimethylsulfoxide minus GK activators) was compared with the activity in wells containing test GK activators, and the concentration of activator that produced a 50% increase in the activity of GK, i.e., the SC1.5, was calculated.

Structure (SMILES)	SC1.5 (concentration of activator that produced a 50% increase in the activity of GK) [µM]
Cn1ccc(NC(=O)C(CC2CCCC2)N2C(=O)C(=O)c3cc(Cl)ccc32)n1 (stereo not shown) [Example 95, 2-(5-Chloro-2,3-dioxo-2,3-dihydro-indol-1-yl)-3-cyclopentyl-N-(1-methyl-1H-pyrazol-3-yl)-propionamide]	7.27
O=C(Nc1nccs1)C(CC1CCCC1)N1C(=O)Cc2cc(OC(F)(F)F)ccc21 (stereo not shown) [Example 35, 3-Cyclopentyl-2-(2-oxo-5-trifluoromethoxy-2,3-dihydro-indol-1-yl)-N-thiazol-2-yl-propionamide]	0.49
O=C(Nc1nccs1)C(CC1CCCC1)N1C(=O)Cc2ccc(Cl)cc21 (stereo not shown) [Example 123, 2-(6-Chloro-2-oxo-2,3-dihydro-indol-1-yl)-3-cyclopentyl-N-thiazol-2-yl-propionamide]	0.27
Cc1ccc2c(c1)N(C(CC1CCCC1)C(=O)Nc1ccn(C)n1)C(=O)C2 (stereo not shown) [Example 131, 3-Cyclopentyl-2-(6-methyl-2-oxo-2,3-dihydro-indol-1-yl)-N-(1-methyl-1H-pyrazol-3-yl)-propionamide]	2.28
CC(C)CC(C(=O)Nc1ccn(C)n1)N1C(=O)Cc2ccc(Cl)cc21 (stereo not shown) [Example 116, 2-(6-Chloro-2-oxo-2,3-dihydro-indol-1-yl)-4-methyl-pentanoic acid (1-methyl-1H-pyrazol-3-yl)-amide]	7.27
O=C1C(=O)N(C(CC2CCCC2)C(=O)Nc2nccs2)c2ccc(OC(F)(F)F)cc21 (stereo not shown) [Example 32, 3-Cyclopentyl-2-(2,3-dioxo-5-trifluoromethoxy-2,3-dihydro-indol-1-yl)-N-thiazol-2-yl-propionamide]	0.76
CC(C)CC(C(=O)Nc1nccs1)N1C(=O)Cc2cc(Br)ccc21 (stereo not shown) [Example 72, 2-(5-Bromo-2-oxo-2,3-dihydro-indol-1-yl)-4-methyl-pentanoic acid thiazol-2-ylamide]	5.82
CC(C)CC(C(=O)Nc1nccs1)N1C(=O)Cc2ccc(Cl)cc21 (stereo not shown) [Example 115, 2-(6-Chloro-2-oxo-2,3-dihydro-indol-1-yl)-4-methyl-pentanoic acid thiazol-2-ylamide]	1.48
O=C(Nc1nccs1)C(CC1CCCC1)N1C(=O)Cc2ccc(Br)cc21 (stereo not shown) [Example 134, 2-(6-Bromo-2-oxo-2,3-dihydro-indol-1-yl)-3-cyclopentyl-N-thiazol-2-yl-propionamide]	0.19
O=C(Nc1cnccn1)C(CC1CCCC1)N1C(=O)Cc2ccccc21 (stereo not shown) [Example 2, 3-Cyclopentyl-2-(2-oxo-2,3-dihydro-indol-1-yl)-N-pyrazin-2-yl-propionamide]	5.93
Cc1ccc2c(c1)C(=O)C(=O)N2C(CC1CCCC1)C(=O)Nc1ccccn1 (stereo not shown) [Example 77, 3-Cyclopentyl-2-(5-methyl-2,3-dioxo-2,3-dihydro-indol-1-yl)-N-pyridin-2-yl-propionamide]	6.67
O=C(Nc1ccccn1)C(CC1CCCC1)N1C(=O)Cc2ccc(Br)cc21 (stereo not shown) [Example 135, 2-(6-Bromo-2-oxo-2,3-dihydro-indol-1-yl)-3-cyclopentyl-N-pyridin-2-yl-propionamide]	0.12
O=C(Nc1nccs1)C(CC1CCCC1)N1C(=O)Cc2cc(Br)ccc21 (stereo not shown) [Example 66, 2-(5-Bromo-2-oxo-2,3-dihydro-indol-1-yl)-3-cyclopentyl-N-thiazol-2-yl-propionamide]	1.69
CC(C)CC(C(=O)Nc1nccs1)N1C(=O)Cc2c(Cl)cccc21 (stereo not shown) [Example 28, 2-(4-Chloro-2-oxo-2,3-dihydro-indol-1-yl)-4-methyl-pentanoic acid thiazol-2-ylamide]	9.95
Cc1ccc2c(c1)CC(=O)N2C(CC(C)C)C(=O)Nc1cnccn1 (stereo not shown) [Example 91, 4-Methyl-2-(5-methyl-2-oxo-2,3-dihydro-indol-1-yl)-pentanoic acid pyrazin-2-ylamide]	28.45
Cn1ccc(NC(=O)C(CC2CCCC2)N2C(=O)C(=O)c3cc(OC(F)(F)F)ccc32)n1 (stereo not shown) [Example 31, 3-Cyclopentyl-2-(2,3-dioxo-5-trifluoromethoxy-2,3-dihydro-indol-1-yl)-N-(1-methyl-1H-pyrazol-3-yl)-propionamide]	1.65
CC(C)CC(C(=O)Nc1ccccn1)N1C(=O)Cc2ccc(Cl)cc21 (stereo not shown) [Example 114, 2-(6-Chloro-2-oxo-2,3-dihydro-indol-1-yl)-4-methyl-pentanoic acid pyridin-2-ylamide]	0.91
COc1ccc2c(c1)CC(=O)N2C(CC(C)C)C(=O)Nc1ccccn1 (stereo not shown) [Example 57, 2-(5-Methoxy-2-oxo-2,3-dihydro-indol-1-yl)-4-methyl-pentanoic acid pyridin-2-ylamide]	13.89
O=C(Nc1ccccn1)C(CC1CCCC1)N1C(=O)Cc2c(Cl)cccc21 (stereo not shown) [Example 21, 2-(4-Chloro-2-oxo-2,3-dihydro-indol-1-yl)-3-cyclopentyl-N-pyridin-2-yl-propionamide]	1.23
Cc1ccc2c(c1)CC(=O)N2C(CC1CCCC1)C(=O)Nc1ccccn1 (stereo not shown) [Example 80, 3-Cyclopentyl-2-(5-methyl-2-oxo-2,3-dihydro-indol-1-yl)-N-pyridin-2-yl-propionamide]	3.83
O=C1C(=O)N(C(CC2CCCC2)C(=O)Nc2nccs2)c2ccc(Br)cc21 (stereo not shown) [Example 63, 2-(5-Bromo-2,3-dioxo-2,3-dihydro-indol-1-yl)-3-cyclopentyl-N-thiazol-2-yl-propionamide]	2.18
Cc1ccc2c(c1)CC(=O)N2C(CC1CCCC1)C(=O)Nc1nccs1 (stereo not shown) [Example 82, 3-Cyclopentyl-2-(5-methyl-2-oxo-2,3-dihydro-indol-1-yl)-N-thiazol-2-yl-propionamide]	2.45

same assay, conditions: @ 30 uM; 5 mM D-glucose, 30° C.

Structure (SMILES)	fold induction at 30 µM
CC(C)CC(C(=O)Nc1cnccn1)N1C(=O)C(=O)c2cc(Br)ccc21 (stereo not shown) [Example 68, 2-(5-Bromo-2,3-dioxo-2,3-dihydro-indol-1-yl)-4-methyl-pentanoic acid pyrazin-2-ylamide]	1.32
CC(C)CC(C(=O)Nc1ccn(C)n1)N1C(=O)Cc2cc(Cl)ccc21 (stereo not shown) [Example 107, 2-(5-Chloro-2-oxo-2,3-dihydro-indol-1-yl)-4-methyl-pentanoic acid (1-methyl-1H-pyrazol-3-yl)-amide]	1.22
COc1ccc2c(c1)C(=O)C(=O)N2C(CC(C)C)C(=O)Nc1nccs1 (stereo not shown) [Example 55, 2-(5-Methoxy-2,3-dioxo-2,3-dihydro-indol-1-yl)-4-methyl-pentanoic acid thiazol-2-ylamide]	1.39
COc1ccc2c(c1)C(=O)C(=O)N2C(CC(C)C)C(=O)Nc1ccccn1 (stereo not shown) [Example 54, 2-(5-Methoxy-2,3-dioxo-2,3-dihydro-indol-1-yl)-4-methyl-pentanoic acid pyridin-2-ylamide]	1.49
CC(C)CC(C(=O)Nc1ccn(C)n1)N1C(=O)C(=O)c2c(Cl)cccc21 (stereo not shown) [Example 19, 2-(4-Chloro-2,3-dioxo-2,3-dihydro-indol-1-yl)-4-methyl-pentanoic acid (1-methyl-1H-pyrazol-3-yl)-amide]	1.24
CC(C)CC(C(=O)Nc1ccccn1)N1C(=O)C(=O)c2ccccc21 (stereo not shown) [Example 9, 2-(2,3-Dioxo-2,3-dihydro-indol-1-yl)-4-methyl-pentanoic acid pyridin-2-ylamide]	1.33
